The text below walks through data of patent publication US9283222B2 (priority 2006, dated 2016).

The target in this assay is Recombinant Human Poly(ADP-Ribose) Polymerase (PARP), PARP-1 (Homo sapiens (Human), UniProt P09874). Conditions: read-out: PARP-1 (Ki); Table 1; text calls the values EC50s.
Sequence of Recombinant Human Poly(ADP-Ribose) Polymerase (PARP), PARP-1 (P09874 whole entry): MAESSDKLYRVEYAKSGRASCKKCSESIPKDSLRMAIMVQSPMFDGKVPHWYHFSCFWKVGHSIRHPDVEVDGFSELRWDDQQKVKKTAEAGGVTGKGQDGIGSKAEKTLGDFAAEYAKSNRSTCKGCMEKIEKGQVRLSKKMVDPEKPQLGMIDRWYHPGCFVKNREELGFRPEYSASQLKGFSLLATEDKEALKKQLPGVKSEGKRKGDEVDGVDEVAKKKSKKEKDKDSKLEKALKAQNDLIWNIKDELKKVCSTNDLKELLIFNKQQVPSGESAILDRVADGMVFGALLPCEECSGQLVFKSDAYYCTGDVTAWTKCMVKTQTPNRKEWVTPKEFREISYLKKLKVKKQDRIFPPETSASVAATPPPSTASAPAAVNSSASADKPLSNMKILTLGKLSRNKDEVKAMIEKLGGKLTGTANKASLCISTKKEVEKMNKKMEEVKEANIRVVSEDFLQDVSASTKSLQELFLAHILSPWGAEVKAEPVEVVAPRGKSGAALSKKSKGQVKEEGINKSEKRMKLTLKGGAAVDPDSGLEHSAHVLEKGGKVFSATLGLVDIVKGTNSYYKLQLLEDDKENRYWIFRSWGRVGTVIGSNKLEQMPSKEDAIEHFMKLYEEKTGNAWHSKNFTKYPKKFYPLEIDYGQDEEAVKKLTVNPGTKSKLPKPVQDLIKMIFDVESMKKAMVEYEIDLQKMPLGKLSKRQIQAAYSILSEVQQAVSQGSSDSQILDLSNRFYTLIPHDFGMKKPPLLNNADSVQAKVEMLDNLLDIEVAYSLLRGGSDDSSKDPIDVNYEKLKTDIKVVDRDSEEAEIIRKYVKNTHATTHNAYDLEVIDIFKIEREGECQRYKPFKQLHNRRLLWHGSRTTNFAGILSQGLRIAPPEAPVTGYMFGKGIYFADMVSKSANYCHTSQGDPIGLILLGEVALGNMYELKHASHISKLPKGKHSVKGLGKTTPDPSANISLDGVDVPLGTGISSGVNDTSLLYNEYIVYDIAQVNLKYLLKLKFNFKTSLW

As a reminder, the Ki is the equilibrium dissociation constant of an inhibitor or competing ligand from its target. Regarding `CCOc1ccc(C(=O)Nc2cccc(Cc3n[nH]c(=O)c4c3CCCC4)c2)cc1OCC` [Example 238, 3,4-diethoxy-N-(3-((4-oxo-3,4,5,6,7,8-hexahydrophthalazin-1-yl)methyl)phenyl)benzamide], the Ki was determined as 47 nM. `O=C(Nc1cccc(Cc2n[nH]c(=O)c3c2CCCC3)c1)c1ccccc1Cc1ccccc1` [Example 239, 2-benzyl-N-(3-((4-oxo-3,4,5,6,7,8-hexahydrophthalazin-1-yl)methyl)phenyl)benzamide]: the Ki was found to be 554 nM.

On to `O=C(Nc1cccc(Cc2n[nH]c(=O)c3c2CCCC3)c1)c1ccccc1Nc1ccccc1` [Example 240, 2-anilino-N-(3-((4-oxo-3,4,5,6,7,8-hexahydrophthalazin-1-yl)methyl)phenyl)benzamide], for which the Ki came out at 285 nM. The same measure for `O=C(Nc1cccc(Cc2n[nH]c(=O)c3c2CCCC3)c1)c1ccccc1C(=O)c1ccccc1` [Example 241, 2-benzoyl-N-(3-((4-oxo-3,4,5,6,7,8-hexahydrophthalazin-1-yl)methyl)phenyl)benzamide]: 1450 nM; for `O=C(Nc1cccc(Cc2n[nH]c(=O)c3c2CCCC3)c1)c1ccccc1CCc1ccccc1` [Example 242, N-(3-((4-oxo-3,4,5,6,7,8-hexahydrophthalazin-1-yl)methyl)phenyl)-2-(2-phenylethyl)benzamide]: 610 nM. To `O=C(Nc1cccc(Cc2n[nH]c(=O)c3c2CCCC3)c1)c1cc(Br)ccc1Cl` [Example 243, 5-bromo-2-chloro-N-(3-((4-oxo-3,4,5,6,7,8-hexahydrophthalazin-1-yl)methyl)phenyl)benzamide] belongs 92 nM; to `Cc1ccc(C(=O)c2ccccc2C(=O)Nc2cccc(Cc3n[nH]c(=O)c4c3CCCC4)c2)cc1` [Example 244, 2-(4-methylbenzoyl)-N-(3-((4-oxo-3,4,5,6,7,8-hexahydrophthalazin-1-yl)methyl)phenyl)benzamide], 2340 nM; to `O=C(Nc1cccc(Cc2n[nH]c(=O)c3c2CCCC3)c1)c1ccccc1I` [Example 245, 2-iodo-N-(3-((4-oxo-3,4,5,6,7,8-hexahydrophthalazin-1-yl)methyl)phenyl)benzamide], 963 nM.

Consider `O=C(Nc1cccc(Cc2n[nH]c(=O)c3c2CCCC3)c1)c1cccc(I)c1` [Example 246, 3-iodo-N-(3-((4-oxo-3,4,5,6,7,8-hexahydrophthalazin-1-yl)methyl)phenyl)benzamide], for which the Ki is 52 nM.

Turning to `O=C(Nc1cccc(Cc2n[nH]c(=O)c3c2CCCC3)c1)c1ccc(I)cc1` [Example 247, 4-iodo-N-(3-((4-oxo-3,4,5,6,7,8-hexahydrophthalazin-1-yl)methyl)phenyl)benzamide], the Ki came out at 48 nM. The same measure for `CC(=O)Nc1cccc(-c2cc(Cc3n[nH]c(=O)c4c3CCCC4)ccc2F)c1` [Example 248]: 2 nM; for `CS(=O)(=O)c1cccc(-c2cc(Cc3n[nH]c(=O)c4c3CCCC4)ccc2F)c1` [Example 249, 4-((6-fluoro-3′-(methylsulfonyl)-1,1′-biphenyl-3-yl)methyl)-5,6,7,8-tetrahydrophthalazin-1(2H)-one]: 85 nM. The same measure for `O=C(c1cccc(-c2cc(Cc3n[nH]c(=O)c4c3CCCC4)ccc2F)c1)N1CCCC1` [Example 250, 4-((6-fluoro-3′-(pyrrolidin-1-ylcarbonyl)-1,1′-biphenyl-3-yl)methyl)-5,6,7,8-tetrahydrophthalazin-1(2H)-one]: 210 nM; for `O=C(c1ccc(-c2cc(Cc3n[nH]c(=O)c4c3CCCC4)ccc2F)cc1)N1CCCC1` [Example 251, 4-((6-fluoro-4′-(pyrrolidin-1-ylcarbonyl)-1,1′-biphenyl-3-yl)methyl)-5,6,7,8-tetrahydrophthalazin-1(2H)-one]: 446 nM; for `NC(=O)c1cccc(-c2cc(Cc3n[nH]c(=O)c4c3CCCC4)ccc2F)c1` [Example 252, 2′-fluoro-5′-((4-oxo-3,4,5,6,7,8-hexahydrophthalazin-1-yl)methyl)-1,1′-biphenyl-3-carboxamide]: 19 nM. Consider `CN(C)C(=O)c1ccc(-c2cc(Cc3n[nH]c(=O)c4c3CCCC4)ccc2F)cc1` [Example 253, 2′-fluoro-N,N-dimethyl-5′-((4-oxo-3,4,5,6,7,8-hexahydrophthalazin-1-yl)methyl)-1,1′-biphenyl-4-carboxamide], for which the Ki was 229 nM. The same measure for `O=c1[nH]nc(CCc2ccccc2)c2c1CCCC2` [Example 255, 4-(2-phenylethyl)-5,6,7,8-tetrahydrophthalazin-1(2H)-one]: 335 nM. To `CC(C)(C)OC(=O)N1CCN(C(=O)OCc2ccccc2)CC1Cc1n[nH]c(=O)c2c1CCCC2` (stereo not shown) [Example 258, 4-benzyl 1-tert-butyl 2-((4-oxo-3,4,5,6,7,8-hexahydrophthalazin-1-yl)methyl)piperazine-1,4-dicarboxylate] belongs 1770 nM; to `Nc1cccc(CCc2n[nH]c(=O)c3c2CCCC3)c1` [Example 260, 4-(2-(3-aminophenyl)ethyl)-5,6,7,8-tetrahydrophthalazin-1(2H)-one], 243 nM. To `O=c1[nH]nc(CC2CNCCN2)c2c1CCCC2` (stereo not shown) [Example 261, 4-(piperazin-2-ylmethyl)-5,6,7,8-tetrahydrophthalazin-1(2H)-one] belongs 556 nM.

Regarding `O=C1CCCN1c1cccc(CCc2n[nH]c(=O)c3c2CCCC3)c1` [Example 262, 4-(2-(3-(2-oxopyrrolidin-1-yl)phenyl)ethyl)-5,6,7,8-tetrahydrophthalazin-1(2H)-one], the Ki came out at 304 nM.

Turning to `O=C(COc1ccccc1)Nc1cccc(CCc2n[nH]c(=O)c3c2CCCC3)c1` [Example 263, N-(3-(2-(4-oxo-3,4,5,6,7,8-hexahydrophthalazin-1-yl)ethyl)phenyl)-2-phenoxyacetamide], the Ki is 144 nM. The same measure for `O=C(c1cccc(-c2cc(CCc3n[nH]c(=O)c4c3CCCC4)ccc2F)c1)N1CCOCC1` [Example 264, 4-(2-(6-fluoro-3′-(morpholin-4-ylcarbonyl)-1,1′-biphenyl-3-yl)ethyl)-5,6,7,8-tetrahydrophthalazin-1(2H)-one]: 662 nM; for `COC(=O)c1cccc(CCc2n[nH]c(=O)c3c2CCCC3)c1` [Example 265, methyl 3-(2-(4-oxo-3,4,5,6,7,8-hexahydrophthalazin-1-yl)ethyl)benzoate]: 58 nM; for `O=C(c1ccc(-c2cc(CCc3n[nH]c(=O)c4c3CCCC4)ccc2F)cc1)N1CCOCC1` [Example 267, 4-(2-(6-fluoro-4′-(morpholin-4-ylcarbonyl)-1,1′-biphenyl-3-yl)ethyl)-5,6,7,8-tetrahydrophthalazin-1(2H)-one]: 534 nM. To `O=C(c1ccccc1-c1cc(CCc2n[nH]c(=O)c3c2CCCC3)ccc1F)N1CCCC1` [Example 268, 4-(2-(6-fluoro-2′-(pyrrolidin-1-ylcarbonyl)-1,1′-biphenyl-3-yl)ethyl)-5,6,7,8-tetrahydrophthalazin-1(2H)-one] belongs 638 nM; to `O=C(c1cccc(-c2cc(CCc3n[nH]c(=O)c4c3CCCC4)ccc2F)c1)N1CCCC1` [Example 269, 4-(2-(6-fluoro-3′-(pyrrolidin-1-ylcarbonyl)-1,1′-biphenyl-3-yl)ethyl)-5,6,7,8-tetrahydrophthalazin-1(2H)-one], 1050 nM; to `O=C(NC1CC1)c1cccc(-c2cc(CCc3n[nH]c(=O)c4c3CCCC4)ccc2F)c1` [Example 270, N-cyclopropyl-2′-fluoro-5′-(2-(4-oxo-3,4,5,6,7,8-hexahydrophthalazin-1-yl)ethyl)-1,1′-biphenyl-3-carboxamide], 487 nM.

As to `CN(C)CCNC(=O)c1cccc(-c2cc(CCc3n[nH]c(=O)c4c3CCCC4)ccc2F)c1` [Example 271, N-(2-(dimethylamino)ethyl)-2′-fluoro-5′-(2-(4-oxo-3,4,5,6,7,8-hexahydrophthalazin-1-yl)ethyl)-1,1′-biphenyl-3-carboxamide], the inhibitory constant (Ki) was 1140 nM. The same measure for `NC(=O)c1cccc(-c2cc(CCc3n[nH]c(=O)c4c3CCCC4)ccc2F)c1` [Example 272, 2′-fluoro-5′-(2-(4-oxo-3,4,5,6,7,8-hexahydrophthalazin-1-yl)ethyl)-1,1′-biphenyl-3-carboxamide]: 204 nM; for `CS(=O)(=O)Nc1cccc(-c2cc(CCc3n[nH]c(=O)c4c3CCCC4)ccc2F)c1` [Example 273, N-(2′-fluoro-5′-(2-(4-oxo-3,4,5,6,7,8-hexahydrophthalazin-1-yl)ethyl)-1,1′-biphenyl-3-yl)methanesulfonamide]: 257 nM; for `CC(=O)Nc1cccc(-c2cc(CCc3n[nH]c(=O)c4c3CCCC4)ccc2F)c1` [Example 274, N-(2′-fluoro-5′-(2-(4-oxo-3,4,5,6,7,8-hexahydrophthalazin-1-yl)ethyl)-1,1′-biphenyl-3-yl)acetamide]: 222 nM. To `CC(Cc1n[nH]c(=O)c2c1CCCC2)c1ccc(F)c(-c2cccc(C(=O)N3CCOCC3)c2)c1` (stereo not shown) [Example 275, 4-(2-(6-fluoro-3′-(morpholin-4-ylcarbonyl)-1,1′-biphenyl-3-yl)propyl)-5,6,7,8-tetrahydrophthalazin-1(2H)-one] belongs 471 nM. Consider `CC(Cc1n[nH]c(=O)c2c1CCCC2)c1ccc(F)c(-c2cccc(C(=O)N3CCCC3)c2)c1` (stereo not shown) [Example 276, 4-(2-(6-fluoro-3′-(pyrrolidin-1-ylcarbonyl)-1,1′-biphenyl-3-yl)propyl)-5,6,7,8-tetrahydrophthalazin-1(2H)-one], for which the Ki turned out to be 943 nM. Turning to `CC(Cc1n[nH]c(=O)c2c1CCCC2)c1ccc(F)c(-c2cccc(C(=O)NC3CC3)c2)c1` (stereo not shown) [Example 277, N-cyclopropyl-2′-fluoro-5′-(1-methyl-2-(4-oxo-3,4,5,6,7,8-hexahydrophthalazin-1-yl)ethyl)-1,1′-biphenyl-3-carboxamide], the Ki came to 436 nM. On to `Nc1cc(Cc2n[nH]c(=O)c3c2CCCC3)ccc1Cl` [Example 278, 4-(3-amino-4-chlorobenzyl)-5,6,7,8-tetrahydrophthalazin-1(2H)-one], for which the Ki was found to be 185 nM. The same measure for `COc1ccc(Cc2n[nH]c(=O)c3c2CCCC3)cc1N` [Example 279, 4-(3-amino-4-methoxybenzyl)-5,6,7,8-tetrahydrophthalazin-1(2H)-one]: 467 nM.
